Results taken from patent US10774071B2, “PD-1/PD-L1 inhibitors” (Gilead Sciences, Inc., priority 2018, dated 2020).

Tests used:
PD-L1 = PD-L1 (Homo sapiens (Human), UniProt Q9NZQ7); experiment: PD-L1/PD-L1 dimerization biochemical protein-protein interaction assay (ALPHA); assay type: binding; conditions: 0.5 nM His tagged PD-L1 and 0.5 nM FLAG tagged PD-L1, Table 4A, read-out: AC50 PDL1 Dimer 1 nM
PD-1/PD-L1 = PD-1/PD-L1 (Homo sapiens (Human), UniProt Q9NZQ7); experiment: PD-1/PD-L1 biochemical protein-protein interaction assay (ALPHA); assay type: binding; conditions: 0.3 nM His tagged PD-L1, 2.5 nM biotinylated Fc-PD-1, readings of 0.064 nM are equal to or less than 0.064 nM, read-out: IC50 PD-L1-PD1
Experimental: Compounds were tested in biochemical protein-protein interaction assays to determine if they can specifically block the interaction between the extracellular domains of PD-1/PD-L1 or CTLA/CD80. Binding of the protein pairs is measured using a bead based Amplified Luminescent Proximity Homogeneous Assay (ALPHA) platform. […] Final protein concentration in the assays were 0.3 nM (His tagged PD-L1), 2.5 nM (biotinylated Fc-PD-1), 1 nM (His tagged CTLA4) and 1 nM (biotinylated CD80).

PD-L1, sequence (Q9NZQ7 19-238): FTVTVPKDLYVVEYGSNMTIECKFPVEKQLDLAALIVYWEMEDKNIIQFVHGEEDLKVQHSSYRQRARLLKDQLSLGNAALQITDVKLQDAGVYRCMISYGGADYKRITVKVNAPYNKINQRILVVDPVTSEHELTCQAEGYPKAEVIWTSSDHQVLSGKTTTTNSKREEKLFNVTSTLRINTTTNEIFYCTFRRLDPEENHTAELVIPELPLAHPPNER
PD-L1, sequence (Q9NZQ7 19-238): as above
PD-1/PD-L1, sequence (Q9NZQ7 19-238): as above

Row | Structure (SMILES) | AC50 (PD-L1) | IC50 (PD-1/PD-L1)
1 | COc1cc(N[C@H]2CCc3c(-c4cccc(-c5ccc(CNC[C@@H]6CCC(=O)N6)c(OC)n5)c4Cl)cccc32)c(C(F)(F)F)nc1CN1CC[C@@H](C(=O)O)C1 [A-43] | 9.89 nM | ≤ 0.064 nM
2 | COc1cc(N[C@H]2CCc3c(-c4cccc(-c5ccc(CNC[C@@H]6CCC(=O)N6)c(OC)n5)c4Cl)cccc32)c(C(F)(F)F)nc1CN [A-44] | 10.6 nM | ≤ 0.064 nM
3 | COc1nc(-c2cccc(-c3cccc4c3CC[C@@H]4Nc3nc(OC)c(CN[C@@H](C)C(=O)O)nc3C(F)(F)F)c2Cl)ccc1CNC[C@@H]1CC(O)C(=O)N1 (stereo partly drawn) [A-45] | 5.86 nM | ≤ 0.064 nM
4 | COc1nc(-c2cccc(-c3cccc4c3CC[C@@H]4Nc3nc(OC)c(CNCC(=O)O)nc3C(F)(F)F)c2Cl)ccc1CNC[C@@H]1CC(O)C(=O)N1 (stereo partly drawn) [A-46] | 7.18 nM | ≤ 0.064 nM
5 | COc1nc(-c2cccc(-c3cccc4c3CC[C@@H]4Nc3nc(OC)c(CN4CC5(C(=O)O)CCC4CC5)nc3C(F)(F)F)c2Cl)ccc1CNC[C@@H]1CC(O)C(=O)N1 (stereo partly drawn) [A-47] | 22.3 nM | ≤ 0.064 nM
6 | COc1nc(-c2cccc(-c3cccc4c3CC[C@@H]4Nc3nc(OC)c(CN[C@@H](C)C(=O)O)nc3C(F)(F)F)c2Cl)ccc1CNC[C@H]1C[C@H](O)C1 [A-48] | 13.5 nM | ≤ 0.064 nM
7 | COc1nc(-c2cccc(-c3cccc4c3CC[C@@H]4Nc3nc(OC)c(CNCC(=O)O)nc3C(F)(F)F)c2Cl)ccc1CNC[C@H]1C[C@H](O)C1 [A-49] | 10.7 nM | ≤ 0.064 nM
8 | COc1nc(-c2cccc(-c3cccc4c3CC[C@@H]4Nc3nc(OC)c(CN[C@@H](C)C(=O)O)nc3C(F)(F)F)c2Cl)ccc1CN[C@H]1C[C@](C)(O)C1 [A-50] | 17.6 nM | ≤ 0.064 nM
9 | COc1nc(-c2cccc(-c3cccc4c3CC[C@@H]4Nc3nc(OC)c(CN4CCCC[C@]4(C)C(=O)O)cc3C(F)(F)F)c2Cl)ccc1CN1CC(C)(O)C1 [A-51] | 106 nM | ≤ 0.064 nM
10 | COc1nc(-c2cccc(-c3cccc4c3CC[C@@H]4Nc3nc(OC)c(CN4CCCC[C@@]4(C)C(=O)O)cc3C(F)(F)F)c2Cl)ccc1CN1CC(C)(O)C1 [A-52] | 15.3 nM | ≤ 0.064 nM
11 | COc1nc(-c2cccc(-c3cccc4c3CC[C@@H]4Nc3nc(OC)c(CN4CC(C)(C(=O)O)C4)cc3C(F)(F)F)c2Cl)ccc1CNC[C@@H]1CCC(=O)N1 [A-53] | 16.2 nM | ≤ 0.064 nM
12 | COc1nc(-c2cccc(-c3cccc4c3CC[C@@H]4Nc3nc(OC)c(CN4CC(C(=O)O)C4)cc3C(F)(F)F)c2Cl)ccc1CN1CC(C)(O)C1 [A-54] | 76.6 nM | ≤ 0.064 nM
13 | COc1nc(-c2cccc(-c3cccc4c3CC[C@@H]4Nc3nc(OC)c(CN4CC(C(=O)O)C4)cc3C(F)(F)F)c2Cl)ccc1CNC[C@@H]1CCC(=O)N1 [A-55] | 13.2 nM | ≤ 0.064 nM
14 | COc1nc(-c2cccc(-c3cccc4c3CC[C@@H]4Nc3nc(OC)c(CN4CCC5CC4(C(=O)O)C5)cc3C(F)(F)F)c2Cl)ccc1CN1CC(C)(O)C1 [A-56] | 11.8 nM | ≤ 0.064 nM
15 | COc1nc(-c2cccc(-c3cccc4c3CC[C@@H]4Nc3nc(OC)c(CN4CC(C(=O)O)C4)cc3C(F)(F)F)c2Cl)ccc1CN[C@H]1C[C@](C)(O)C1 [A-57] | 29.6 nM | ≤ 0.064 nM
16 | COc1nc(-c2cccc(-c3cccc4c3CC[C@@H]4Nc3nc(OC)c(CN4CCC5CC4(C(=O)O)C5)cc3C(F)(F)F)c2Cl)ccc1CN[C@H]1C[C@](C)(O)C1 [A-58] | 9.38 nM | ≤ 0.064 nM
17 | COc1nc(-c2cccc(-c3cccc4c3CC[C@@H]4Nc3nc(OC)c(CN4CCC5CC4(C(=O)O)C5)cc3C(F)(F)F)c2Cl)ccc1CNC[C@@H]1CCC(=O)N1 [A-59] | 7.75 nM | ≤ 0.064 nM
18 | COc1nc(-c2cccc(-c3cccc4c3CC[C@@H]4Nc3nc(OC)c(CN4C5CCC4(C(=O)O)CC5)cc3C(F)(F)F)c2Cl)ccc1CN1CC(C)(O)C1 [A-60] | 13.9 nM | ≤ 0.064 nM
19 | COc1nc(-c2cccc(-c3cccc4c3CC[C@@H]4Nc3nc(OC)c(CN4C5CCC4(C(=O)O)CC5)cc3C(F)(F)F)c2Cl)ccc1CNC[C@@H]1CCC(=O)N1 [A-61] | 10.6 nM | ≤ 0.064 nM
20 | COc1nc(-c2cccc(-c3cccc4c3CC[C@@H]4Nc3nc(OC)c(CN4CC5(C(=O)O)CCC4CC5)nc3C(F)(F)F)c2Cl)ccc1CNC[C@H]1CCC(=O)N1 [A-62] | 45.4 nM | ≤ 0.064 nM
21 | COc1nc(-c2cccc(-c3cccc4c3CC[C@@H]4Nc3nc(OC)c(CN[C@@H](C)C(=O)O)cc3C(F)(F)F)c2Cl)ccc1CN1CC(C)(O)C1 [A-63] | 34.4 nM | ≤ 0.064 nM
22 | COc1nc(-c2cccc(-c3cccc4c3CC[C@@H]4Nc3nc(OC)c(CN[C@@H](C)C(=O)O)cc3C(F)(F)F)c2Cl)ccc1CNC[C@@H]1CCC(=O)N1 [A-64] | 8.04 nM | ≤ 0.064 nM
23 | COc1nc(-c2cccc(-c3cccc4c3CC[C@@H]4Nc3nc(OC)c(CNCC(=O)O)cc3C(F)(F)F)c2Cl)ccc1CNC[C@@H]1CCC(=O)N1 [A-65] | 14.7 nM | ≤ 0.064 nM

Row | Structure (SMILES) | AC50 (PD-L1) | IC50 (PD-1/PD-L1)
24 | COc1nc(-c2cccc(-c3cccc4c3CC[C@@H]4Nc3nc(OC)c(CN[C@@H](C)C(=O)O)cc3C(F)(F)F)c2Cl)ccc1CN[C@H]1C[C@](C)(O)C1 [A-66] | 19.6 nM | ≤ 0.064 nM
25 | COc1nc(-c2cccc(-c3cccc4c3CC[C@@H]4Nc3nc(OC)c(CNCC(=O)O)cc3C(F)(F)F)c2Cl)ccc1CN[C@H]1C[C@](C)(O)C1 [A-67] | 32.9 nM | ≤ 0.064 nM
26 | COc1nc(-c2cccc(-c3cccc4c3CC[C@@H]4Nc3nc(OC)c(CN4CC[C@@](C)(C(=O)O)C4)nc3C(F)(F)F)c2Cl)ccc1CN1CC(C)(O)C1 [A-68] | 83.7 nM | ≤ 0.064 nM
27 | COc1nc(-c2cccc(-c3cccc4c3CC[C@@H]4Nc3nc(OC)c(CN4C5CCC4(C(=O)O)CC5)nc3C(F)(F)F)c2Cl)ccc1CNC[C@@H]1CCC(=O)N1 [A-69] | 5.27 nM | ≤ 0.064 nM
28 | COc1nc(-c2cccc(-c3cccc4c3CC[C@@H]4Nc3nc(OC)c(CN4CCC5CC4(C(=O)O)C5)nc3C(F)(F)F)c2Cl)ccc1CNC[C@@H]1CCC(=O)N1 [A-70] | 15.6 nM | ≤ 0.064 nM
29 | COc1nc(-c2cccc(-c3cccc4c3CC[C@@H]4Nc3nc(OC)c(CN4CC(C)(O)C4)nc3C(F)(F)F)c2Cl)ccc1CN1CC[C@@H](C(=O)O)C1 [A-71] | 52.4 nM | ≤ 0.064 nM
30 | COc1nc(-c2cccc(-c3cccc4c3CC[C@@H]4Nc3nc(OC)c(CN[C@@H](C)C(=O)O)nc3C(F)(F)F)c2Cl)ccc1CN1CC(O)C1 [A-72] | 13.4 nM | ≤ 0.064 nM
31 | COc1nc(-c2cccc(-c3cccc4c3CC[C@@H]4Nc3nc(OC)c(CNCC(=O)O)nc3C(F)(F)F)c2Cl)ccc1CN1CC(O)C1 [A-73] | 15.7 nM | ≤ 0.064 nM
32 | COc1nc(-c2cccc(-c3cccc4c3CC[C@@H]4Nc3nc(OC)c(CN[C@@H](C)C(=O)O)nc3C(F)(F)F)c2Cl)ccc1CN1CC(C)(O)C1 [A-74] | 9.07 nM | ≤ 0.064 nM
33 | COc1nc(-c2cccc(-c3cccc4c3CC[C@@H]4Nc3nc(OC)c(CNCC(=O)O)nc3C(F)(F)F)c2Cl)ccc1CN1CC(C)(O)C1 [A-75] | 18.1 nM | ≤ 0.064 nM
34 | COc1nc(-c2cccc(-c3cccc4c3CC[C@@H]4Nc3nc(OC)c(CN4C[C@H](C)C[C@H]4C(=O)O)nc3C(F)(F)F)c2Cl)ccc1CNC[C@@H]1CCC(=O)N1 [A-76] | 30.2 nM | ≤ 0.064 nM
35 | CCC1C(C(=O)O)CCN1Cc1nc(C(F)(F)F)c(N[C@H]2CCc3c(-c4cccc(-c5ccc(CNC[C@@H]6CCC(=O)N6)c(OC)n5)c4Cl)cccc32)nc1OC (stereo partly drawn) [A-77] | 26.6 nM | ≤ 0.064 nM
36 | COc1nc(-c2cccc(-c3cccc4c3CC[C@@H]4Nc3nc(OC)c(CN4C[C@H](C)C[C@H]4C(=O)O)cc3C(F)(F)F)c2Cl)ccc1CNC[C@@H]1CCC(=O)N1 [A-78] | 13.5 nM | ≤ 0.064 nM
37 | CCC1C(C(=O)O)CCN1Cc1cc(C(F)(F)F)c(N[C@H]2CCc3c(-c4cccc(-c5ccc(CNC[C@@H]6CCC(=O)N6)c(OC)n5)c4Cl)cccc32)nc1OC (stereo partly drawn) [A-79] | 21.4 nM | ≤ 0.064 nM
38 | COc1nc(-c2cccc(-c3cccc4c3CC[C@@H]4Nc3nc(OC)c(CN4C[C@@H]5CC[C@H]4[C@@H]5C(=O)O)nc3C(F)(F)F)c2Cl)ccc1CNC[C@@H]1CCC(=O)N1 [A-80] | 19.9 nM | ≤ 0.064 nM
39 | COc1nc(-c2cccc(-c3cccc4c3CC[C@@H]4Nc3nc(OC)c(CN4CC5CC(C(=O)O)C4C5)nc3C(F)(F)F)c2Cl)ccc1CNC[C@@H]1CCC(=O)N1 (stereo partly drawn) [A-81] | 23.1 nM | ≤ 0.064 nM
40 | COC(=O)C12CCC(CC1)N(Cc1nc(C(F)(F)F)c(N[C@H]3CCc4c(-c5cccc(-c6ccc(CNC[C@@H]7CCC(=O)N7)c(OC)n6)c5Cl)cccc43)nc1OC)C2 [A-82] | 84.9 nM | 0.14 nM
41 | COc1nc(-c2cccc(-c3cccc4c3CC[C@@H]4Nc3nc(OC)c(CN[C@@H](C)C(=O)O)cc3C(F)(F)F)c2Cl)ccc1CNC[C@H]1C[C@](C)(O)C1 [A-83] | 23.6 nM | ≤ 0.064 nM
42 | COc1nc(-c2cccc(-c3cccc4c3CC[C@@H]4Nc3nc(OC)c(CNCC(=O)O)cc3C(F)(F)F)c2Cl)ccc1CNC[C@H]1C[C@](C)(O)C1 [A-84] | 31.8 nM | ≤ 0.064 nM
43 | COc1nc(-c2cccc(-c3cccc4c3CC[C@@H]4Nc3nc(OC)c(CNC4(C(=O)O)CC4)nc3C(F)(F)F)c2Cl)ccc1CNC[C@H]1C[C@](C)(O)C1 [A-85] | 42.5 nM | ≤ 0.064 nM
44 | COc1nc(-c2cccc(-c3cccc4c3CC[C@@H]4Nc3nc(OC)c(CN[C@@H](C)C(=O)O)nc3C(F)(F)F)c2Cl)ccc1CNC[C@H]1C[C@](C)(O)C1 [A-86] | 29.2 nM | ≤ 0.064 nM
45 | COc1nc(-c2cccc(-c3cccc4c3CC[C@@H]4Nc3nc(OC)c(CNCC(=O)O)nc3C(F)(F)F)c2Cl)ccc1CNC[C@H]1C[C@](C)(O)C1 [A-87] | 22.3 nM | ≤ 0.064 nM
